Measured values: ChEMBL document CHEMBL5113486, “Hit-to-lead optimization of novel phenyl imidazole carboxamides that are active against Leishmania donovani” (Eur J Med Chem, 2022)

Legend:
[1] = Selectivity index, ratio of CC50 for cytotoxicity against human THP-1 cells to IC50 for antileishmanial activity against Leishmania donovani infected in human THP-1 cells; assay type: toxicity, cell-based; settings: read-out: Ratio CC50/IC50
[2] = Cytotoxicity against human THP-1 cells assessed as cell growth inhibition; assay type: toxicity, cell-based
Leishmania donovani = assay: Antileishmanial activity against Leishmania donovani infected in human THP-1 cells assessed as growth inhibition by intramacrophage assay; assay type: functional, organism-based
[3] = Cytotoxicity against human HepG2 cells assessed as cell growth inhibition at 100 uM; assay type: toxicity, cell-based; settings: read-out: Activity

Row | Structure (SMILES) | selectivity ratio [1] | CC50 [2] [µM] | IC50 (Leishmania donovani) [µM] | inhibition at 100 µM [3] [%]
1 | COc1ccc(-c2cnc(NC(=O)C3CCOCC3)n2C)cc1 | > 1 | > 100 | > 100 | 
2 | Cn1c(-c2cccc(C#N)c2)cnc1NC(=O)c1ccc(F)cc1 | > 6.3 | > 100 | 16 | 
3 | COc1ccc(-c2cnc(NC(=O)c3ccc(F)cc3)n2C(C)C)cc1 | > 1 | > 50 | > 50 | 
4 | COc1ccc(-c2cn(C)c(NC(=O)c3ccc(F)cc3)n2)cc1 | > 1 | > 50 | > 50 | 
5 | COc1ccc(-c2cnc(NC(=O)c3ccccc3Cl)n2C)cc1 | > 3.8 | > 50 | 13 | 
6 | COc1ccc(-c2cnc(NC(=O)c3cccc(O)c3)n2C)cc1 | > 1.9 | > 100 | 54 | 
7 | Cn1c(-c2ccc(Br)cc2)cnc1NC(=O)c1ccc(F)cc1 | 6.5 | 46 | 7.1 | 
8 | COc1ccc(-c2cnc(NC(=O)c3ccc(Cl)cc3)n2C)cc1 | > 12 | > 100 | 8.1 | 
9 | COc1ccc(-c2cnc(NC(=O)c3ccccc3OC)n2C)cc1 | > 3 | > 100 | 33 | 
10 | Cn1c(-c2cccc(Cl)c2)cnc1NC(=O)c1ccc(F)cc1 | > 2.3 | > 50 | 22 | 
11 | Cc1ccc(C(=O)Nc2ncc(-c3ccccc3)n2C)cc1 | > 20 | > 50 | 2.4 | 
12 | Cn1c(-c2ccc([N+](=O)[O-])cc2)cnc1NC(=O)c1ccc(F)cc1 | > 1 | > 50 | > 50 | 
13 | COc1ccc(-c2cnc(NC(=O)c3ccccc3O)n2C)cc1 | > 1 | > 100 | > 100 | < 50
14 | Cc1ccc(C(=O)Nc2ncc(-c3ccccc3)o2)cc1 | 19 | 26 | 1.4 | 
15 | COc1ccc(-c2cccc(NC(=O)c3ccc(F)cc3)n2)cc1 | > 1 | > 100 | > 100 | 
16 | COc1ccc(C(=O)Nc2ncc(-c3ccc(OC)cc3)n2C)cc1 | > 1 | > 100 | > 100 | 
17 | COc1ccc(-c2cnc(NC(=O)c3ccccc3[N+](=O)[O-])n2C)cc1 | > 1 | > 50 | > 50 | 

Row | Structure (SMILES) | selectivity ratio [1] | CC50 [2] [µM] | IC50 (Leishmania donovani) [µM] | inhibition at 100 µM [3] [%]
18 | Cn1cc(-c2ccccc2)nc1NC(=O)c1ccc(F)cc1 | > 1 | > 50 | > 50 | 
19 | COc1ccc(-c2cnc(NC(=O)C3CCCC3)n2C)cc1 | > 1.2 | > 100 | 83 | < 50
20 | COc1ccc2nc(NC(=O)c3ccc(F)cc3)n(C)c2c1 | > 2.3 | > 100 | 44 | < 50
21 | COc1ccc(-c2cnc(NC(=O)c3ccncc3)n2C)cc1 | > 2.3 | > 100 | 44 | < 50
22 | Cn1c(-c2ccc(C#N)cc2)cnc1NC(=O)c1ncc[nH]1 | > 7.1 | > 100 | 14 | 
23 | COc1ccc(-c2cnc(NC(=O)c3ccc(C)cc3)n2C)cc1 | > 3.4 | > 100 | 29 | 
24 | Cn1c(-c2cccc([N+](=O)[O-])c2)cnc1NC(=O)c1ccc(F)cc1 | > 1 | > 50 | > 50 | 
25 | COc1ccc(-c2cnc(NC(=O)c3cccc(OC)c3)n2C)cc1 | > 1 | > 100 | > 100 | 
26 | O=C(Nc1ncc(-c2ccccc2)o1)c1ccc(Cl)cc1 | 30 | 10 | 0.33 | 
27 | Cn1c(-c2ccccc2Br)cnc1NC(=O)c1ccc(F)cc1 | > 1 | > 100 | > 100 | 
28 | COc1ccc(-c2cnc(NC(=O)c3ccccc3Br)n2C)cc1 | > 1 | > 100 | > 100 | 
29 | Cn1c(-c2ccccc2Cl)cnc1NC(=O)c1ncc[nH]1 | > 9.6 | > 50 | 5.2 | 
30 | COc1ccc(-c2cnc(NC(=O)c3ccc(O)cc3)n2C)cc1 | > 1 | > 100 | > 100 | 
31 | Cc1cccc(C(=O)Nc2ncc(-c3ccccc3)n2C)c1 | > 14 | > 50 | 3.5 | 
32 | Cn1c(-c2ccccc2)cnc1NC(=O)c1ccccc1 | > 22 | > 100 | 4.5 | 
33 | Cn1c(-c2cccc(C#N)c2)cnc1NC(=O)c1ncc[nH]1 | > 1 | > 50 | > 50 | 
34 | Cc1ccc(-c2cnc(NC(=O)c3ccc(F)cc3)n2C)cc1 | 4.5 | 60 | 13 | 
